Laboratory results: ChEMBL document CHEMBL3352751, “7,9-Diaryl-1,6,8-trioxaspiro[4.5]dec-3-en-2-ones: readily accessible and highly potent anticancer compounds” (Bioorg Med Chem Lett, 2014)
In brackets after ≈: the same amount, converted by molar mass.

Legend:
[1] = Anticancer activity against human NMC-797 cells after 48 hrs by viability assay; assay type: functional, cell-based; conditions: NMC-797, 48 h
[2] = Anticancer activity against human MJ cells after 48 hrs by viability assay; assay type: functional, cell-based
[3] = test system: Escherichia coli; test: Antimicrobial activity against Escherichia coli K-12 ATCC 25404 assessed as growth inhibition after 20 hrs by two-fold microdilution method; assay type: functional, organism-based; conditions: K-12 ATCC 25404, 20 h
[4] = test system: Bacillus subtilis; test: Antimicrobial activity against Bacillus subtilis Marburg ATCC 6051 assessed as growth inhibition after 20 hrs by two-fold microdilution method; assay type: functional, organism-based; conditions: Marburg ATCC 6051, 20 h
[5] = test system: Mycolicibacterium smegmatis; test: Antimicrobial activity against Mycobacterium smegmatis strain MC2 155 ATCC 700084 assessed as growth inhibition after 20 hrs by two-fold microdilution method; assay type: functional, organism-based; conditions: MC2 155 ATCC 700084, 20 h

Row | SMILES | IC50 [1] | IC50 [2] | IC50 [3] | MIC95 [3] | IC50 [4] | MIC95 [4] | IC50 [5] | MIC95 [5]
1 | O=C1C=C[C@]2(C[C@@H](c3ccc([N+](=O)[O-])cc3)O[C@@H](c3ccc([N+](=O)[O-])cc3)O2)O1 (racemic) | 26 nM | 190 nM |  |  |  |  |  | 
2 | O=C1C=C[C@]2(C[C@@H](c3ccccc3)O[C@@H](c3cccc([N+](=O)[O-])c3)O2)O1 (racemic) | 120 nM | 340 nM |  |  |  |  |  | 
3 | O=C1C=C[C@]2(C[C@@H](c3coc([N+](=O)[O-])c3)O[C@@H](c3coc([N+](=O)[O-])c3)O2)O1 (racemic) | 340 nM | 820 nM |  |  |  |  |  | 
4 | O=C1C=C[C@]2(C[C@@H](c3ccccc3[N+](=O)[O-])O[C@@H](c3ccccc3[N+](=O)[O-])O2)O1 (racemic) | 64 nM | 170 nM |  |  |  |  |  | 
5 | O=C1C=C[C@]2(CCOCO2)O1 (racemic) | 8600 nM | > 20000 nM |  |  |  |  |  | 
6 | O=C1C=C[C@]2(C[C@@H](c3cccc(C(F)(F)F)c3)O[C@@H](c3cccc(C(F)(F)F)c3)O2)O1 (racemic) | 30 nM | 190 nM |  |  |  |  |  | 
7 | O=C1CC[C@]2(C[C@@H](c3cccc(C(F)(F)F)c3)O[C@@H](c3cccc(C(F)(F)F)c3)O2)O1 (racemic) | > 20000 nM | > 20000 nM |  |  |  |  |  | 
8 | O=C1C=C[C@]2(C[C@@H](c3ccccc3)O[C@@H](c3ccccc3)O2)O1 (racemic) | 900 nM | 1700 nM | > 500000 nM | > 500 µM | 224000 nM | > 500 µM | > 500000 nM | > 500 µM
9 | O=C1C=C[C@]2(C[C@@H](c3cccc(Cl)c3)O[C@@H](c3cccc(Cl)c3)O2)O1 (racemic) | 82 nM | 260 nM | > 500000 nM | > 500 µM | 408000 nM | > 500 µM | > 500000 nM | > 500 µM
10 | O=C1C=C[C@]2(C[C@@H](c3cccc([N+](=O)[O-])c3)O[C@@H](c3ccccc3)O2)O1 (racemic) | 160 nM | 370 nM |  |  |  |  |  | 
11 | CC1[C@@H](c2cccc([N+](=O)[O-])c2)O[C@@H](c2cccc([N+](=O)[O-])c2)O[C@@]12C=CC(=O)O2 (mixture of isomers) | 12000 nM | > 20000 nM |  |  |  |  |  | 
12 | O=C1C=C[C@]2(C[C@@H](c3ccc4ccccc4c3[N+](=O)[O-])O[C@@H](c3ccc4ccccc4c3[N+](=O)[O-])O2)O1 (racemic) | 7600 nM | > 20000 nM |  |  |  |  |  | 
13 | O=C1C=C[C@]2(C[C@@H](c3c(F)c(F)c(F)c(F)c3F)O[C@@H](c3c(F)c(F)c(F)c(F)c3F)O2)O1 (racemic) | 570 nM | 2000 nM |  |  |  |  |  | 
14 | O=C1C=C[C@]2(C[C@@H](c3cccc([N+](=O)[O-])c3)O[C@@H](c3cccc([N+](=O)[O-])c3)O2)O1 (racemic) | 47 nM | 170 nM | > 500000 nM | > 500 µM | 216000 nM | 425 µM (≈ 169 µg/mL) | > 500000 nM | > 500 µM
